Measurements reported in US10793525B2, “13-cis-RAMBA retinamides that degrade MNKs for treating cancer” (UNIVERSITY OF MARYLAND, BALTIMORE, priority 2014, dated 2020).
pIC50: −log10 of the molar value.

What was measured:
[1] = system: MDA-MB-231 xenograft tumors; experiment: MDA-MB-231 anti-tumor efficacy study (xenograft); assay type: in vivo
Protocol: (§1) All animal studies were performed according to the guidelines and approval of the Animal Care Committee of the University of Maryland School of Medicine, Baltimore (UMB). Female Athymic Nude mice or male SCID (Charles Rivers Laboratories or UMB facilities) at 4-6 weeks of age were maintained in a pathogen-free environment. MDA-MB-231 (10×10^6) cells were subcutaneously implanted into Athymic Nude mice and CWR22Rv1 (1×10^6) cells into male SCID mice. Mice bearing established tumors (˜100 mm^3) were randomized into treatment groups of 6 and dosed with vehicle (40% β-cyclodexdrin in ddH2O), or compounds 20 and 22 (i.p., formulated in 40% β-cyclodexdrin in ddH2O, once daily, 5 days a week for 28 days).
(§2) The National Cancer Institute (NCI) criteria^23 were used to determine tumor growth efficacy of our compounds. Thus, percent test or treatment/control (% T/C), defined as the ratio of the median tumor volume for the treated group versus control group, was calculated as % T/C=[(median tumor volume of treated group at day 28)/(median tumor volume of control group at day 28)]×100.
Indeed, the two compounds were equipotent (FIG. 9A). […] Representative photos of the tumor-bearing mice in the control and the two treatment groups at termination of experiment (day 28) are presented in FIG. 9B.

[2] = system: fAR, AR-V7, Mnk-1, peIF4E and their downstream targets; experiment: Molecular analysis of CWR22Rv1 tumors; assay type: in vivo; details: CWR22Rv1 tumors from treated mice
Description: To assess their in vivo mode of action, we evaluated the effects of Compound 20 on fAR, AR-V7, Mnk-1, peIF4E and their downstream targets.

[3] = system: PC-3 human prostate carcinoma cells; experiment: MTT cell proliferation assay, PC-3; assay type: cell-based; details: PC-3 cells, SEM < 10%, read-out: GI50s PC-3
Description: (§3) MCF-7, MDA-MB-231, MDA-MB-468 and SKBR-3 human breast cancer cells and LNCaP, PC-3, and CWR22Rv1 human prostate carcinoma cells (American Type Culture Collection, Manassas, Va., USA) were maintained in RPMI 1640 media (Gibco-Life Technologies, Grand Island, N.Y., USA) supplemented with 10% fetal bovine serum and 1% penicillin/streptomycin. Western blotting was done as mentioned previously,^8, 13b using the following antibodies: AR, Bad, Bax, Bcl-2, eIF4E, Mnk1, Mnk-2, N-cadherin, PARP, peIF4E^ser209 purchased from Cell Signaling Technology, Danvers, Mass., USA. Anti-Mnk2 was purchased from Sigma-Aldrich and normal rabbit IgG, cyclin D1 was from Santa Cruz Biotechnology, CA, USA.
(§4) Cells were plated (2500 cells/well) in 96 well plates and treated with or without specified compounds as described previously.^8a, 12b
(§5) The clinically relevant retinoids, ATRA and 4-HPR and the Mnk inhibitor, cercosporamide were used as comparators in the assays.
(§6) The PC-3 cell line was the least sensitive to all the compounds tested.

[4] = system: LNCaP cells; experiment: MTT viability of LNCaP cells with AR and/or Mnk1 siRNA knockdown; assay type: cell-based, human
Protocol: siRNA (100 nM) was transfected into LNCaP cells using Lipofectamine® 2000 Transfection reagent (Invitrogen) as per manufacturer's protocol. Protein silencing was confirmed by immunoblot analysis. For cell growth assay experiments, transfection complex were removed after 18 h, cells were washed twice with PBS and replaced with growth medium. 24 h later drug was added and harvested after 72 h. For Western blot experiment, transfection complexes were washed off after 18 h and replaced with phenol free media for 24 h. Cells were then treated with 20 μM of VNLG-152 for an additional 24 h and cells were lysed using RIPA lysis buffer.^8b, 27 Luciferase assay was conducted in LNCaP cells using the Dual Luciferase kit (Promega) as described earlier.^8b, 13b
To confirm whether AR and Mnk1 are the major anti-cancer targets of these compounds on LNCaP cells, the percentage of cell survival in LNCaP cells was analyzed by MTT assay following transient transfection with AR siRNA and/or Mnk1 siRNA for 18 hours.

[5] = system: Mnk-1, peIF4E and their downstream targets; experiment: Molecular analysis of MDA-MB-231 tumors; assay type: in vivo; details: MDA-MB-231 tumors from treated mice
Description: To assess their in vivo mode of action, we evaluated the effects of Compounds 20 and 22 on Mnk-1, peIF4E and their downstream targets.

[6] = system: SKBR-3 human breast cancer cells; experiment: MTT cell proliferation assay, SKBR-3; assay type: cell-based; details: SK-BR-3, SKBR-3 cells, SEM < 10%, read-out: GI50s SKBR-3
Description: as §3, §4, §5

[7] = system: MDA-MB-468 human breast cancer cells; experiment: MTT cell proliferation assay, MDA-MB-468; assay type: cell-based; details: MDA-MB-468 cells, SEM < 10%, read-out: GI50s MDA-MB-468
Description: as §3, §4, §5

[8] = system: CWR22Rv1 human prostate carcinoma cells; experiment: MTT cell proliferation assay, CWR22Rv1; assay type: cell-based; details: SEM < 10%, read-out: GI50s CWR22Rv1
Description: as §3, §4, §5, §6

[9] = system: LNCaP human prostate carcinoma cells; experiment: MTT cell proliferation assay, LNCaP; assay type: cell-based; details: SEM < 10%, read-out: GI50s LNCaP
Description: as §3, §4, §5, §6

[10] = system: CWR22Rv1 xenograft tumors; experiment: CWR22Rv1 anti-tumor efficacy study (xenograft); assay type: in vivo, mice
Protocol: as §1, §2

[11] = system: Mnk1 and 2, peIF4E, eIF4E and cPARP; experiment: Western blot of lysates from MCF-7, MDA-MB-231 and MDA-MB-468 cells; assay type: cell-based, human; details: MCF-7, MDA-MB-231, MDA-MB-468 cells, 24 hours
Description: as §3
As we previously reported, the anti-proliferative effects of the 1st generation MNKDAs in BC cells was due to degradation of Mnk1/2 with subsequent depletion of peIF4E and induction of apoptosis.^8a To determine if these compounds modulate Mnk1/2 and related oncogenic proteins, the inventors performed western blot of lysates from MCF-7, MDA-MB-231 and MDA-MB-468 human breast cancer cells treated with Compounds 16, 20, and 22, or with vehicle (DMSO, negative control), or Compound 6 (positive control). Equal protein concentrations from MCF-7 (FIG. 3A), MDA-MB-231 (FIG. 3B) and MDA-MB-468 (FIG. 3C) cells treated for 24 hours with Compounds 16, 20 and 22 at the various concentrations as indicated and Compound 6 (20 μmol/L) were separated by SDS-PAGE and western blots probed with antibodies to Mnk1 and 2, peIF4E, eIF4E and cPARP. Vehicle treated cells were included as control and all blots were reprobed for GAPDH for loading control.

[12] = MDA-MB-231 xenograft mice, i.p. 20 mg/kg 5×/week over 28 days
[13] = CWR22Rv1 xenografts, castrated SCID mice, i.p. 20 mg/kg/day, 5 days per week for 28 days

SMILES: CC1=C(/C=C/C(C)=C/C=C/C(C)=C\C(=O)Nc2cccc(F)c2)C(C)(C)CCC1n1ccnc1 (centres unmarked) [Compound 20, (2Z,4E,6E,8E)-9-(3-(1H-imidazol-1-yl)-2,6,6-trimethylcyclohex-1-en-1-yl)-N-(3-fluorophenyl)-3,7-dimethylnona-2,4,6,8-tetraenamide]
- body weight [1, 12]: did not lose body weight
- signs of toxicity / adverse events [1, 12]: no apparent adverse events
- suppression of tumor growth ([1]; MDA-MB-231 xenografts, i.p. 20 mg/kg 5×/week over 28 days): 85.4%
- % T/C (treated/control median tumor volume) ([1]; MDA-MB-231 xenografts, i.p. 20 mg/kg 5×/week, day 28): 14.6%
- fAR, AR-V7, Mnk1/2, peIF4E, cyclin D1 and Bcl-2 in tumors [2]: depletion
- pro-apoptotic protein Bad in tumors [2]: up-regulation
- pIC50 [3]: 5.25
- cell viability, un-transfected LNCaP cells ([4]; 5 μM, 72 hours, MTT): robust reduction in cell viability
- cell viability, LNCaP cells harboring AR or Mnk1 knockdown ([4]; 5 μM, compared to siRNA alone treated counterparts): sensible decrease in cell viability
- cell viability, LNCaP cells with double knockdown of AR and Mnk1 ([4]; compared to cells co-treated with Mnk1 and AR siRNA): did not show any significant decrease in cell viability
- Mnk1/2, peIF4E, cyclin D1 and Bcl-2 in tumors [5]: depletion
- pro-apoptotic proteins Bad and Bax in tumors [5]: up-regulation
- pIC50 [6]: 4.77
- pIC50 [7]: 5.17
- pIC50 [8]: 5.69
- pIC50 [9]: 5.57
- adverse effects ([10]; CWR22Rv1 xenograft mice): no apparent adverse effects
- body weights ([10]; CWR22Rv1 xenograft mice, vehicle control versus treatment): comparable
- % T/C value [10, 13]: 38.8%
- suppression of tumor growth [10, 13]: 61.2%
- expression of total eIF4E [11]: no noticeable effects
- expressions of Mnk1, Mnk2 and peIF4E [11]: significantly and dose-dependently, reduced
- formation of c-PARP (apoptosis) [11]: dose-dependent formation of c-PARP
